# Assay results published in ChEMBL document CHEMBL1201862, “PubChem BioAssay data set” (2004).
# Activity calls are given as the source filed them.
# Experiments:
# Phospholipase D1 = Phospholipase D1 (Homo sapiens, UniProt Q13393); test: cellular phospholipase D1 inhibition IC50 – cell-based, dose response (AID 602151); assay type: functional;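 further: cellular PLD1 assay in Calu-1 cells stimulated with PMA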
# Phospholipase D2 = Phospholipase D2 (Homo sapiens, UniProt O14939); test: cellular phospholipase D2 inhibition IC50 – cell-based, dose response (AID 602147); assay type: functional;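 further: cellular assay in HEK293 cells overexpressing GFP-tagged PLD2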
# [1] = NIH-3T3 fibroblast cytotoxicity, dose response, cytotoxicity control, cell-based, fluorescence, Alamar Blue, secondary assay (AID 2327); assay type: functional;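 further: NIH-3T3 mouse fibroblasts cultured with fluconazole at 8 µg/mL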
# [2] = fluconazole-exposed Candida albicans growth modulators – fluorescence, retest, confirmation (AID 2467); assay type: functional, cell-based
# [3] = target: Serine/threonine-protein phosphatase (Candida dubliniensis (strain CD36 / CBS 7987 / NCPF 3949 / NRRLY-17841) (Yeast), UniProt B9W6M3); test: blockers of CaCl2-induced CDRE-lacZ signaling – S. cerevisiae, luminescence, secondary, dose response (AID 2388); assay type: functional, cell-based;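 further: yeast reporter cells carrying a calcineurin-responsive lacZ construct stimulated with calcium chloride; luminescent beta-galactosidase reporter signal in whole cells rather than isolated phosphatase activity; potency for inhibition where a drop in reporter signal means calcineurin blockade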
# [4] = target: ATP-dependent molecular chaperone HSP82 (Candida albicans (strain WO-1) (Yeast), UniProt C4YTQ8); test: steroid-induced GRE reporter decrease in yeast – S. cerevisiae, luminescence, Hsp90 inhibitor project, dose response (AID 2400); assay type: functional, cell-based;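 further: beta-galactosidase luminescence from glucocorticoid response element reporter as proxy for Hsp90 function; inhibitor potency where signal loss means Hsp90 inhibition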
# [5] = target: T1, Rac GTPase-activating protein 1 (Homo sapiens, UniProt Q9H0H5); test: blockers of MgcRacGAP-driven Rac1 GTP hydrolysis – biochemical, ADP Hunter fluorescence, primary and confirmatory, confirmation (AID 624330); assay type: functional
# T1 sequence (Q9H0H5 whole entry): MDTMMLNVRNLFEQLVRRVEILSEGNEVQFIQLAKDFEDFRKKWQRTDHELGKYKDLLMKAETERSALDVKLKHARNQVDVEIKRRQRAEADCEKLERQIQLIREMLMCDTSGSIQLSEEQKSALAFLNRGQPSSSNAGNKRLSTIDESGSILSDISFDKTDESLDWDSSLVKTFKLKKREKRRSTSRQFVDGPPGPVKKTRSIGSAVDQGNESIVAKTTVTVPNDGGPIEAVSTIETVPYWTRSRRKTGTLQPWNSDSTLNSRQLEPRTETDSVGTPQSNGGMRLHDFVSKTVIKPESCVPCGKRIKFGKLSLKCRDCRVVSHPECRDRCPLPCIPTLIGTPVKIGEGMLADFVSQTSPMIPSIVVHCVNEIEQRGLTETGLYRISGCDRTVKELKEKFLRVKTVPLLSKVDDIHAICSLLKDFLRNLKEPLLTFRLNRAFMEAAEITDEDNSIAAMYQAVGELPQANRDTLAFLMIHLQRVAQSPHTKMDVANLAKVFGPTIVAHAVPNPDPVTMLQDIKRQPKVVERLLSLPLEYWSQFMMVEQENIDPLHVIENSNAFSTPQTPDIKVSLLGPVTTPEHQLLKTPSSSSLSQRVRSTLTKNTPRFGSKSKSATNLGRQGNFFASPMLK
# [6] = target: T2, Endoribonuclease toxin MazF (Escherichia coli K-12, UniProt P0AE70); test: MazEF toxin-antitoxin RNase activation – biochemical, fluorescence, single-stranded RNA substrate, SAR follow-up (AID 588603); assay type: functional
# T2 sequence (P0AE70 whole entry): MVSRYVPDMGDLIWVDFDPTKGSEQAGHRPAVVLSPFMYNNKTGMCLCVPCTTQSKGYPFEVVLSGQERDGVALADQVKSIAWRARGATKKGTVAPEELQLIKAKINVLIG
# [7] = target: T2, Endoribonuclease toxin MazF; test: activation of MazEF endoribonuclease cleavage – biochemical, fluorescence, single-stranded RNA substrate, uHTS hits, dose response (AID 588481); assay type: functional
# MEF = test: SAR analysis of small molecule cytotoxicity of MazEF TA System activators in embryonic fibroblast (MEF) cells. [Related pubchem assays (depositor defined):AID504720, AID504743]; assay type: functional; conditions: Mus musculus
# [8] = target: T2, Endoribonuclease toxin MazF; test: SAR analysis of small molecule activators of the MazEF TA System via a fluorescence-based single-stranded RNase assay counterscreen. [Related pubchem assays (depositor defined):AID504720, AID504743]; assay type: functional
# [9] = target: T2, Endoribonuclease toxin MazF; test: substrate-only fluorescence increase artefacts – biochemical, single-stranded RNase substrate, counter-screen for MazEF activator project, dose response (AID 588502); assay type: functional
# Streptokinase A = target: T3, Streptokinase A (Streptococcus pyogenes serotype M1, UniProt P10520); test: viability-normalized secreted streptokinase activity reduction – plasminogen activation absorbance, OD405, dose response (AID 1914); assay type: functional, Streptococcus pyogenes M1 GAS;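 further: secreted streptokinase activity via plasminogen activation per viability signal from cell pellet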
# T3 sequence (P10520 whole entry): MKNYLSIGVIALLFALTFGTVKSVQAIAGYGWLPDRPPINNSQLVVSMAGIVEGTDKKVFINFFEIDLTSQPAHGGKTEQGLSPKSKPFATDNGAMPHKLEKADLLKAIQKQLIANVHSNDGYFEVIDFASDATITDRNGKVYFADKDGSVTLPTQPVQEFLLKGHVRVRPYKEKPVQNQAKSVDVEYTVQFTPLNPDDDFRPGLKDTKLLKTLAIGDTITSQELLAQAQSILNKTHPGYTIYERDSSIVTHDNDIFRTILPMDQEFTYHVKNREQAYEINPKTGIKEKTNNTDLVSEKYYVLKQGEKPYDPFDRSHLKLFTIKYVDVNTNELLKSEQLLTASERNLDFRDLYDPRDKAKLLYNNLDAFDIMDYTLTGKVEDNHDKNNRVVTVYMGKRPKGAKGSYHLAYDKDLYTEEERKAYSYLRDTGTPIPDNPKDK
# [10] = target: Luciferin 4-monooxygenase (Photinus pyralis, UniProt P08659); test: inhibition of purified Photinus pyralis luciferase – biochemical, luminescence, dose response (AID 1891)
# [11] = Luminescence Cell-Based Dose Confirmation HTS to Identify Inhibitors of Platelet Dense Granule Release. [Related pubchem assays: 1663 (Primary HTS), 1678 (Summary of Project)]; assay type: functional
# Streptococcus = test: GAS UMAA2166 growth inhibition – luminescence, BacTiterGlo, counter-screen for streptokinase expression inhibitor project, dose response (AID 1915); assay type: functional, organism-based;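 further: potency for reduction of bacterial viability or growth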
# HeLa = test: ATP-based viability loss in HeLa cells – cell-based, CellTiter-Glo luminescence, cherry-pick samples, cytotoxicity control for MITF activator project, dose response (AID 540259); assay type: functional; conditions: Homo sapiens
# cells = assay type: functional, cell-based
# [12] = target: T4, Nuclear receptor subfamily 0 group B member 1 (Homo sapiens, UniProt P51843); assay type: functional, cell-based
# [13] = viability loss in HepG2 hepatoma cells – cell-based, ATP luminescence, cherry-pick, activator set 2, cytotoxicity control, dose response (AID 1053143); assay type: functional
# Cysteine protease ATG4B = Cysteine protease ATG4B (Homo sapiens, UniProt Q9Y4P1); assay type: functional;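 further: Fluorescence-based dose-response confirmation assay measuring inhibition of ATG4B activity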
# Phospholipase A2 = Phospholipase A2 (Homo sapiens, UniProt P04054); assay type: functional;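 further: confirmatory dose-response counterscreen on phospholipase A2, testing hits that came from an ultra-high-throughput screen for ATG4B inhibitors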
# HEK293 = test: cells; assay type: functional, cell-based; conditions: Homo sapiens
# [14] = target: T4, Nuclear receptor subfamily 0 group B member 1; test: Luminescence-based cell-based high throughput dose response assay for inhibitors of the orphan nuclear receptor subfamily 0, group B, member 1 (DAX1; NR0B1). [Related pubchem assays (depositor defined):AID504766, AID504790]; assay type: functional
# T4 sequence (P51843 whole entry): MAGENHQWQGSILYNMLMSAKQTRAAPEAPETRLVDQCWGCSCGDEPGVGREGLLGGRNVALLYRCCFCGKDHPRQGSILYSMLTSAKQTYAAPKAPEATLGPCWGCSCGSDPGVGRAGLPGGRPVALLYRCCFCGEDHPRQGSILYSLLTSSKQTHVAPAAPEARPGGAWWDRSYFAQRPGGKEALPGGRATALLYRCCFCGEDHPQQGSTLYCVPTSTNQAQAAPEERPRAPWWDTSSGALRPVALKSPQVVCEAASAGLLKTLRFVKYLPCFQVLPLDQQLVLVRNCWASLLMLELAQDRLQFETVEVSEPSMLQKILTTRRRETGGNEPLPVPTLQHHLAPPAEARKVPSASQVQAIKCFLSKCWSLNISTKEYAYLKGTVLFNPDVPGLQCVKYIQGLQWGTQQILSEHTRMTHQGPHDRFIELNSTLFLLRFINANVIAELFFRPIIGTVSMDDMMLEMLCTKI
# Cysteine protease ATG4B, sequence (Q9Y4P1 whole entry): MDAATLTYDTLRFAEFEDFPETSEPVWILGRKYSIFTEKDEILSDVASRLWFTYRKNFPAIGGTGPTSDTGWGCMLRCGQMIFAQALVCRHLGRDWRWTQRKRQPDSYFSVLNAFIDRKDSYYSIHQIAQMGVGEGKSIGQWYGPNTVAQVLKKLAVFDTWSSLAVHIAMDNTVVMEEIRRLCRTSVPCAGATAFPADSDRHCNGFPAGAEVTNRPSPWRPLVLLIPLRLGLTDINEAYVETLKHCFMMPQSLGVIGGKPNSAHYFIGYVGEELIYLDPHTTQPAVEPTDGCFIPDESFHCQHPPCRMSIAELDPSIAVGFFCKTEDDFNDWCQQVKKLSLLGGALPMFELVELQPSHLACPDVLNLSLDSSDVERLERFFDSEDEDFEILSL
# Phospholipase A2, sequence (P04054 whole entry): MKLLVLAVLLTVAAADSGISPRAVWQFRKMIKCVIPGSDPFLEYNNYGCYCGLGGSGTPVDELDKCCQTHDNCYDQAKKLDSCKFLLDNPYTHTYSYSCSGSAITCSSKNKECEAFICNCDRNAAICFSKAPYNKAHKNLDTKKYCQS
# Phospholipase D1, sequence (Q13393 whole entry): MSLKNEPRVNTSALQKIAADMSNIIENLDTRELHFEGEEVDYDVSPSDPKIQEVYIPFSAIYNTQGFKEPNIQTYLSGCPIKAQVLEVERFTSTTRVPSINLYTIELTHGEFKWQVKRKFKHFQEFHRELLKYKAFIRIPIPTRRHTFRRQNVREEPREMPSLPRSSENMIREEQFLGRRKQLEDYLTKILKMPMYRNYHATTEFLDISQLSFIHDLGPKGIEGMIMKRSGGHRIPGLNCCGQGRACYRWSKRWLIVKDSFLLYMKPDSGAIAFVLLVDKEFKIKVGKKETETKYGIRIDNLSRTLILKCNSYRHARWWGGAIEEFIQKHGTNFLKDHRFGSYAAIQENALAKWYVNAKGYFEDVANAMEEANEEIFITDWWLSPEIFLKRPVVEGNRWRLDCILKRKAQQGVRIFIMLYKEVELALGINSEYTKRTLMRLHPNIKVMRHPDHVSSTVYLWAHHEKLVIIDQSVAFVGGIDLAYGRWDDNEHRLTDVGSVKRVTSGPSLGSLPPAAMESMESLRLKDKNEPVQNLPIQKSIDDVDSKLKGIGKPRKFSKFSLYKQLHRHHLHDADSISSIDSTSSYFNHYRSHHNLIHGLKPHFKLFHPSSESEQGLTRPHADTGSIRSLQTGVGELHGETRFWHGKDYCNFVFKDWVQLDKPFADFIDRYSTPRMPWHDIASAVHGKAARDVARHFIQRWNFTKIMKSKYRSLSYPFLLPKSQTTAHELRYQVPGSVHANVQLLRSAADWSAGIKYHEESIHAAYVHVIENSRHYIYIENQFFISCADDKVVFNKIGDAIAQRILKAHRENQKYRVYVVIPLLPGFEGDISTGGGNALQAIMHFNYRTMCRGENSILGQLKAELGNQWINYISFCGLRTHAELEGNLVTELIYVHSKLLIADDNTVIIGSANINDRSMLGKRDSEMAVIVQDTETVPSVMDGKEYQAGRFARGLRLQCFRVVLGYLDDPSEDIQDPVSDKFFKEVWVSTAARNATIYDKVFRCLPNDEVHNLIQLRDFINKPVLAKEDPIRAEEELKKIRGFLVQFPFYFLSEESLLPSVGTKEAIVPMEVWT
# Phospholipase D2, sequence (O14939 whole entry): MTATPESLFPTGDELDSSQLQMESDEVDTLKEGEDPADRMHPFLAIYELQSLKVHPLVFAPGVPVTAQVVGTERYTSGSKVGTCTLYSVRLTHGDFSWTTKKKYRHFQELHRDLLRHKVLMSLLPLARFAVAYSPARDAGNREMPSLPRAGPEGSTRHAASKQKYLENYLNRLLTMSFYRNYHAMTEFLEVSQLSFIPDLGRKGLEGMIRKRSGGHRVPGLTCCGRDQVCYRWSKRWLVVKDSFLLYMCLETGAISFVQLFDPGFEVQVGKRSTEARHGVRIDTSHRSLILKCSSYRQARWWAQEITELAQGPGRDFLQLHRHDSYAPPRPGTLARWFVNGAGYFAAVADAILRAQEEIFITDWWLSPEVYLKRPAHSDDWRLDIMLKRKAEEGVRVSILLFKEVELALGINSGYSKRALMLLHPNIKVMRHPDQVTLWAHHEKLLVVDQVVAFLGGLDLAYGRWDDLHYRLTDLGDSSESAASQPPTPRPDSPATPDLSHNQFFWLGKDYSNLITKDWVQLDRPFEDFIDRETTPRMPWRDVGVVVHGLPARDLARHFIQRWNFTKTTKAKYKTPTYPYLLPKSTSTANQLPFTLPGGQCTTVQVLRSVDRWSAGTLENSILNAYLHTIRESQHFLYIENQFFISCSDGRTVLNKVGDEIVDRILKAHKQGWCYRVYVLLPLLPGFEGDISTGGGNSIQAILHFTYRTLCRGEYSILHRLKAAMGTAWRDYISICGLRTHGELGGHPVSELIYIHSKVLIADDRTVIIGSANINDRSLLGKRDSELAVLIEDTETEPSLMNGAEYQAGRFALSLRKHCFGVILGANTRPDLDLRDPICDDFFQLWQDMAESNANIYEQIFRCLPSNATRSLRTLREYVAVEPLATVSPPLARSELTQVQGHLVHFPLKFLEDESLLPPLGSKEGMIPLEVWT
# Luciferin 4-monooxygenase, sequence (P08659 whole entry): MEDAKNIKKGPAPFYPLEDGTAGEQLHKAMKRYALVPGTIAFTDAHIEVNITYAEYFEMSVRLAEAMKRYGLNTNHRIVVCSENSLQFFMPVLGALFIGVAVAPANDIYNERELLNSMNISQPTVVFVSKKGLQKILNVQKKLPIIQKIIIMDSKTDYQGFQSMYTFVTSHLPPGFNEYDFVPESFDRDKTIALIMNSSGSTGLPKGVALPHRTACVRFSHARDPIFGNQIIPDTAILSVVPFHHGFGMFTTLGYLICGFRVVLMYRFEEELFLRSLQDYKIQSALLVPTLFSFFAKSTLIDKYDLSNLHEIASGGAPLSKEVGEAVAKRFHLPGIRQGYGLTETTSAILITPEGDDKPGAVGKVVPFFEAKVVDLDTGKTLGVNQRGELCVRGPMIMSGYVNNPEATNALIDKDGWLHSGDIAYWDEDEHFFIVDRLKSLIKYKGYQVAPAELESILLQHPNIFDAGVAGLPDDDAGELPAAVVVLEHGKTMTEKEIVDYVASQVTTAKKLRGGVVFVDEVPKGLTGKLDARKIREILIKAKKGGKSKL
# ATP-dependent molecular chaperone HSP82, sequence (C4YTQ8 whole entry): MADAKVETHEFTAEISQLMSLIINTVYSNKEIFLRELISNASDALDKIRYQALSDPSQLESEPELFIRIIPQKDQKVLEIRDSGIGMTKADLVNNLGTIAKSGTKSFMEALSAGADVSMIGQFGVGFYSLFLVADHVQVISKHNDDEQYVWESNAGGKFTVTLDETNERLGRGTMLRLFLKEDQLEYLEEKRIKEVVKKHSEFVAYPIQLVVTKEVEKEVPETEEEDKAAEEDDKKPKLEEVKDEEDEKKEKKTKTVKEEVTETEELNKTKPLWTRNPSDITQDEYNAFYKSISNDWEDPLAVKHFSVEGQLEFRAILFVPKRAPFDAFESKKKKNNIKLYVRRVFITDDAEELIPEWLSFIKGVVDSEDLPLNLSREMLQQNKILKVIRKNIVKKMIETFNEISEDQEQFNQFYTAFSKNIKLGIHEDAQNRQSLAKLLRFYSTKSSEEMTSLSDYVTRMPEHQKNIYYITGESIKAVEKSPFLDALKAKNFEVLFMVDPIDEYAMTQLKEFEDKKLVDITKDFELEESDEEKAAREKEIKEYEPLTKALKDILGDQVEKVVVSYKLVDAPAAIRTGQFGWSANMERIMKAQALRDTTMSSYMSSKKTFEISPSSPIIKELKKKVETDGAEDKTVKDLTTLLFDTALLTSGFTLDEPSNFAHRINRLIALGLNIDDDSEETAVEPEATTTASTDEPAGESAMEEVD
# Serine/threonine-protein phosphatase, sequence (B9W6M3 whole entry): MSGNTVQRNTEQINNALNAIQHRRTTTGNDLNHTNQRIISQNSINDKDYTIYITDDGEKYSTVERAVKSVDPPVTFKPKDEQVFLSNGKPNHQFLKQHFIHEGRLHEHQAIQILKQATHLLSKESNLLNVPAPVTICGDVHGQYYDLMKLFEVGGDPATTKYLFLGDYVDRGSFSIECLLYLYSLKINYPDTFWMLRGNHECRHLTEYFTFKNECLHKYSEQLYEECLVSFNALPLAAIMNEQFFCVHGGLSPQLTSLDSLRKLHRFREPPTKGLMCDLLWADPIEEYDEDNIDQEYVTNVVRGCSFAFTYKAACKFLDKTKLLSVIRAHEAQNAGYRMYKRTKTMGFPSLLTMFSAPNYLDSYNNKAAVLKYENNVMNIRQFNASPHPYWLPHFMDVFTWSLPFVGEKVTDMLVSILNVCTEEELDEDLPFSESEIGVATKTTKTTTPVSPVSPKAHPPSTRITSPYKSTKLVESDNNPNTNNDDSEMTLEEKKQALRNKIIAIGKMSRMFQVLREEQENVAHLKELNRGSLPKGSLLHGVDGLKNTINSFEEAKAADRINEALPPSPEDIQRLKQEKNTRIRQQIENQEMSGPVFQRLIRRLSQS
compound,measurement,setting,value
C[C@@H](CN1CCC(n2c(=O)[nH]c3ccccc32)CC1)NC(=O)c1ccc(F)c(F)c1,IC50,Phospholipase D1,0.02 µM (active)
same,IC50,Phospholipase D2,1.6 µM (active)
COc1ccc(-n2c(=O)c3c4c(sc3n3c(S)nnc23)CCCC4)cc1,EC50,[1],34.1 µM (inconclusive)
same,EC50,[2],1.17 µM (active)
same,EC50,[3],> 180 µM (inactive)
same,EC50,[4],4.45 µM (active)
same,IC50,[5],35.7 µM (active)
O=C(NC(=O)c1ccc(F)cc1)Nc1nc(-c2cccs2)cc(C(F)(F)F)n1,EC50,[6],> 99 µM (inactive)
same,EC50,[7],20.3 µM (inactive)
same,CC50,MEF,> 99 µM (inactive)
same,EC50,[8],> 99 µM (inactive)
same,EC50,[9],> 99 µM (inactive)
O=C(Nc1ccccc1)C(=O)Nc1ccc2c(c1)N(C(=O)C1CC1)CCC2,EC50,Streptokinase A,> 150 µM (not active)
same,EC50,[10],1.13 µM (active)
same,EC50,[11],3.74 µM (active)
same,EC50,Streptococcus,25.4 µM (active)
same,AC50,HeLa,14.1 µM (active)
same,IC50,cells,> 67.5 µM (inactive)
same,IC50,[12],> 67.5 µM (inactive)
same,AC50,[13],26 µM (active)
O=C(c1ccc(Cl)c(S(=O)(=O)Nc2ccccc2C(=O)N2CCc3ccccc3C2)c1)N1CCc2ccccc2C1,IC50,Cysteine protease ATG4B,15.6 µM (active)
same,IC50,Phospholipase A2,10.7 µM (active)
Cc1nc(N)nc(COc2ccccc2)n1,IC50,HEK293,> 67.4 µM (inactive)
same,IC50,[14],> 67.4 µM (inactive)
